Measurements as given in PubChem BioAssay AID2305 (GlaxoSmithKline (GSK), 2010).

test system: P. falciparum 3D7 growth, pLDH absorbance; experiment: blood-stage malaria parasite growth potency – strain 3D7, dose response (AID 2305)

SMILES | IC50 [nM]
COC(=O)c1ccc(CC(C)NCC(O)c2cccc(SC(F)(F)F)c2)cc1 (configuration not stated) | 890
COc1ccc(CON2C(N)=NC(N)=NC2(C)C)cc1OC | 10
O=C1CSc2ccc(CNC3CCN(CCc4c(Cl)cnc5ccc(Cl)cc45)CC3)nc2N1 | 230
N#Cc1cccc(Nc2nccc(NCC(O)c3ccc(C(F)(F)F)cc3)n2)c1 (configuration not stated) | 560
CN(Cc1cccc(C#N)c1)C1CCN(c2cc(NC(=O)c3ccc(F)cc3)ccn2)CC1 | 1070
CC(C)(C)OC(=O)c1c(NC(=O)/C=C/c2ccc(O)c(O)c2)sc2c1CCCC2 | 820
Cc1ccc(C2CCN(CCCCNC(=O)c3ccc(NC(=O)c4ccc(Cl)cc4)cc3)CC2)c(OCC2CC2)c1 | 890
FC(F)(F)c1cccc(Nc2nc3ccccc3nc2Nc2cccc(C(F)(F)F)c2)c1 | 140
COc1ccc(NC(=O)CCNc2cc(C)nc(NCCOc3ccccc3)n2)cc1 | 750
CC(=O)Nc1nc(C(=O)Nc2cccc(-c3ccc(-c4nc5c(C)cccc5[nH]4)s3)c2)cs1 | 220
COc1cc2ncnc(Nc3ccc(OCc4ccccc4)c(I)c3)c2cc1OC | 710
COc1ccc(-c2ccnc(-c3cccc(-c4ccccn4)n3)c2)cc1 | 820
CCc1c(CCNCCCCCCNCCc2ccc3c(c2C)OCO3)ccc2c1OCO2 | 610
N#Cc1cccc(-c2cccc(C(=O)NC3CCC(CCN4CCc5ccc(C#N)cc5CC4)CC3)c2)c1 (configuration not stated) | 260
CCCC(C)Nc1nc(C)cc(N[C@@H](CC(C)C)C(=O)NCCc2ccccc2)n1 (some centres not stated) | 1360
CC1(C)CCCN(C(=O)c2cccc(-n3nc(-c4ccc(Cl)cc4)cc3N)c2)C1 | 710
O=C(NCc1cccc2ccccc12)C(c1cc2ccccc2o1)N1CCN(C(c2ccccc2)c2ccccc2)CC1 (configuration not stated) | 670
Cc1cccc2[nH]c(-c3ccc(-c4cccc(CNC(C)C)c4)s3)nc12 | 230
CCc1nc(N)nc(N)c1-c1ccc2c(c1)CCCC2 | 200
O=C(Nc1ccc(C(=O)N2CCN(CCN3CCN(c4cccc(C(F)(F)F)c4)CC3)CC2)cc1)c1cc(Cl)cc(Cl)c1 | 830
Cc1sc2nc(CSc3ccccc3)nc(N3CCN(CC(=O)N4CCCC4)CC3)c2c1C | 1260
CC1CCC(NC(=O)c2nn(-c3ccc(Cl)cc3)c(=O)c3ccccc23)CC1 (configuration not stated) | 1080
COC(=O)c1ccc(-c2ccc(-c3cccnc3)cc2C)cc1 | 660
O=C(Nc1cccc(-c2cccc(-c3nc4ccccc4[nH]3)c2)c1)c1ccoc1 | 740
COc1cc2ccccc2c(CNCCCCCCNCc2c(OC)c(OC)cc3ccccc23)c1OC | 1110

SMILES | IC50 [nM]
Cc1ccc2nc(NC#N)[nH]c2c1 | 1150
C[C@H](NC(=O)[C@H](CCCCNC(=O)OC(C)(C)C)NC(=O)OC(C)(C)c1ccc(-c2ccccc2)cc1)C(=O)OCc1ccccc1 | 180
CCC(C)(C)N[C@@H](C)[C@@H](O)c1ccc(C(F)(F)F)cc1 | 750
Cc1cc(CN2CCCC(OC(c3ccc(F)cc3)c3ccc(F)cc3)C2)ccc1O (configuration not stated) | 880
Cc1cccc2[nH]c(-c3ccc(-c4cccc(CNCc5cccc(N)c5)c4)cc3)nc12 | 390
NC(=O)c1cc2nc(Nc3ccc(F)cc3)nc(NC3CCC3)c2[nH]1 | 200
CS(=O)(=O)Nc1ccc(-c2cnc3[nH]cc(-c4ccc(C(=O)O)cc4)c3c2)cc1 | 800
Cc1nn(CCOC(=O)NC(NCC2COc3ccccc3O2)C(Cl)(Cl)Cl)cc1[N+](=O)[O-] (configuration not stated) | 920
CN(CCCN(C)c1cc(NC(=O)c2ccc(F)cc2)ccn1)Cc1cccc(F)c1 | 1220
O=C(CCc1cccnc1)Nc1ccc(-c2cccc(-c3nc4ccc(F)cc4[nH]3)c2)cc1 | 920
CN(c1cc(NC(=O)c2ccc(F)cc2)ccn1)C1CCN(Cc2ccc(C#N)cc2)CC1 | 1510
COc1ccc(NC(=O)CCNc2cc(C)nc(NCCc3ccc(F)cc3)n2)cc1 | 850
CC(CCc1ccccc1)NCC(O)c1ccc2c(c1)S(=O)(=O)c1ccccc1N2 (configuration not stated) | 1220
NCc1ccc(-c2ccccc2CN(C(=O)Nc2ccccc2)C2CCN(Cc3ccccc3)CC2)cc1 | 880
O=C(Nc1ccc2c(c1)CCCN2S(=O)(=O)c1cccs1)c1cc([N+](=O)[O-])ccc1Cl | 840
O=C(Nc1ccc(Cn2ncc(N3CCCNCC3)c(Cl)c2=O)cc1)Nc1cc(C(F)(F)F)cc(C(F)(F)F)c1 | 590
COc1ccc(-c2cc(NCc3ccc(-n4ccnc4)cc3)nc(Nc3ccccc3)n2)cc1 | 970
NCCC(=O)Nc1ccc(-c2cnc3[nH]cc(-c4ccc(C(=O)O)cc4)c3c2)cn1 | 840
Fc1ccc2nc(-c3ccc(-c4ccc(CNCCN5CCNCC5)cc4)s3)[nH]c2c1 | 780
C[C@@H](COc1ccccc1)NCC(O)c1ccc([N+](=O)[O-])c(OCc2ccccc2)c1 (some centres not stated) | 990
CCOC(=O)C(C(C)=O)C(c1ccccc1)C(C(C)=O)C(=O)OCC (configuration not stated) | 750
O=C(Nc1cccc(-c2cccc(-c3nc4ccc(F)cc4[nH]3)c2)c1)c1csnn1 | 790
COc1ccc(CCn2c(=N)c(C(=O)NCc3cccnc3)cc3c(=O)n4cccc(C)c4nc32)cc1 | 1400
COc1cc(CS(C)(=O)=O)ccc1Nc1nccc(-c2c(-c3cccc(NC(=O)c4c(F)cccc4F)c3)nn3ccccc23)n1 | 970
CCCCCc1cc(O)c2c(c1)OC(C)(C)CC2C1=CCN(Cc2cnc3ccccc3c2)CC1 (configuration not stated) | 280

SMILES | IC50 [nM]
COc1ccc(NC(=O)C2c3ccccc3C(=O)N(C3CCCC3)C2c2cccs2)cc1OC (configuration not stated) | 1090
Cc1sc(N2CCCCC2)nc1C(=O)Nc1ccc(F)cc1C(F)(F)F | 1150
COc1ccc(C2CC(c3cccs3)=NN2C(=O)CNc2cccc(C#N)c2)cc1OC (configuration not stated) | 1450
O=C(/C=C/c1ccc(Cl)c(Cl)c1)NCCCCCN1CC[C@H](NC(=O)Nc2ccc(Oc3ccccc3)cc2)C1 | 700
Cc1cc2ncn(-c3nccc(NCc4ccc(F)c(C)c4)n3)c2cc1C | 990
CC(C)(C)c1ccc(CNC(=O)c2ccc(CNC3CCC(N)CC3)s2)cc1 (configuration not stated) | 530
CC(C)CNCc1cccc(-c2ccc(CN(CCCN3CCN(C)CC3)C(=O)/C=C/c3ccccc3)cc2)c1 | 860
CCN(c1cc(C)nc(Nc2ccc(Cl)cc2)n1)[C@H]1CCN(Cc2ccccc2)C1 | 860
Cc1cccc2[nH]c(-c3cccc(-c4cccc(NC(=O)C(C)CN(C)C)c4)c3)nc12 (configuration not stated) | 410
CC(=NN=C(N)N)c1ccc2c(ccc3ccccc32)c1 | 830
COC(=O)c1ccc(CC(C)NCC(O)c2cccc(C(F)(F)F)c2)cc1C (configuration not stated) | 970
Cc1cc(NC(=O)Nc2ccc(C(C)C)cc2)c2ccccc2n1 | 660
COc1ccc(-c2cc(C(=O)N3CCc4ccccc43)c3ccccc3n2)cc1OC | 330
Cc1cccc2[nH]c(-c3cccc(-c4ccc(NC(=O)c5cnn6cccnc56)cc4)c3)nc12 | 210
CC1CN(Cc2ccccc2)CCN1c1ccc(NC(=O)c2ccc(F)cc2)cc1 (configuration not stated) | 1010
O=C(C=Cc1ccc(Cl)c(Cl)c1)NCCCCCN1CCCC(CCCNC(=O)/C=C/c2ccccc2)C1 (configuration not stated) | 590
O=C(Nc1cccc(-c2ccc(-c3nc4ccccc4[nH]3)cc2)c1)c1ccncc1 | 530
CC(C)N(Cc1ccccc1)C(=O)CN1C(=O)COc2ccc(S(=O)(=O)N3CCCCCC3)cc21 | 250
CCNc1cc(C)nc(Nc2ccc(NS(=O)(=O)c3cc(OC)ccc3OC)cc2)n1 | 850
O=[N+]([O-])c1cccc(CNC2CCN(Cc3ccc(C(F)(F)F)cc3)CC2)c1 | 740
O=C(Cn1c(CCc2cccc(F)c2F)cc(=O)c2cccnc21)N(CCCn1ccnc1)Cc1ccc(-c2ccc(C(F)(F)F)cc2)cc1 | 800
O=C(NCCCCN1CCC(c2ccc(OC(F)(F)F)cc2)CC1)c1ccc(NC(=O)c2ccc(Cl)cc2)cc1 | 630
NC(N)=Nc1nc(-c2cccc(NC(=O)NCC(c3ccccc3)c3ccccc3)c2)cs1 | 790
O=C(Nc1ccc(N2CCN(c3ncccc3C(F)(F)F)CC2)nc1)c1cccs1 | 1190
CCOc1cccc(C(=O)Nc2cccc(CN3CCCN(Cc4ccc(O)cc4)CC3)c2)c1 | 820

SMILES | IC50 [nM]
c1cc(CN2CCN(c3ccncc3)CC2)cc(-c2cccc(-c3nc4ccccc4[nH]3)c2)c1 | 130
CCNc1cc(C(=O)N[C@@H](Cc2ccccc2)[C@H](O)CNC(CC)c2cccc(Cl)c2)cc(N2CCCC2=O)c1 (some centres not stated) | 30
C=CCOC(=O)N1CCC(CNCc2ccc(-c3cccc(-c4nc5c(C)cccc5[nH]4)c3)cc2)C1 (configuration not stated) | 120
O=C(/C=C/c1ccc(Cl)c(Cl)c1)N1CCC(CN2CCC(c3cn(CC(=O)N4CCCCC4)c4ccccc34)CC2)CC1 | 750
Cc1cccc(-c2cccc3c(NC(=O)N4CCc5cc6nccc(N7CCN8CCC[C@H]8C7)c6cc54)cccc23)n1 | 920
c1ccc2oc(-c3cc4ccncc4cc3OC3CCNCC3)cc2c1 | 1470
COc1ccc2cc(C(c3nnnn3CC3CCCO3)N3CCc4ccccc43)c(=O)[nH]c2c1 (configuration not stated) | 800
Oc1cccc(Nc2ccnc3cc(-c4ccncc4)ccc23)c1 | 1050
COc1ccc(CN2CCCN(Cc3cccc(NC(=O)c4ccc(Cl)c(Cl)c4)c3)CC2)cc1 | 970
CN1CCN(C(C(=O)NCc2cc(Cl)cc(Cl)c2)c2ccccc2-c2ccsc2)CC1 (configuration not stated) | 940
CC(C)(Oc1ccc(Cl)cc1)C(=O)NCCC1CCN(CCCCCNC(=O)/C=C/c2ccc(Cl)c(Cl)c2)CC1 | 940
O=S(=O)(NCCN1CCCC1)c1ccc(-c2ccc(CNCc3ccccc3)cc2)cc1 | 780
COC(=O)c1ccc(CC(C)NCC(O)c2cccc(C(F)(F)F)c2)c(Cl)c1 (configuration not stated) | 850
CC(=O)Oc1c(C2CCN(CCCCNC(=O)c3ccc(NC(=O)c4ccc(Cl)cc4)cc3)CC2)ccc2ccccc12 | 880
CN(C)CCOc1ccc(-c2cc(-c3ccc(Cl)c(O)c3)c(-c3ccncc3)o2)cc1 | 1450
COc1ccc2nc(SC(C)C(=O)c3c[nH]c4ccccc34)[nH]c2c1 (configuration not stated) | 1280
COc1ccc(C=Cc2cc(N)c3ccccc3n2)cc1 | 970
O=C(NCc1ccc(C(=O)NC2CCCCC2)cc1)c1ccc(O)c(-c2ccc(Cl)c(Cl)c2)c1 | 880
CCOc1cc(C(=O)N[C@@H](Cc2ccccc2)[C@H](O)CNCc2cc(OC)cc(OC)c2)cc(N2CCCC2=O)c1 | 850
C[C@@H](C(N)=O)N1CCCCC1c1ccc(OCc2cccc(F)c2)cc1 (some centres not stated) | 990
COc1ccc2ncc(F)c(CCN3C[C@H](CNCc4cc(C#N)c5c(c4)OCCO5)[C@H](O)C3)c2n1 | 580
CCCc1cc(Cc2cnc(N)nc2N)ccc1OCCCCCC(=O)O | 580
